Ends that are not written are not given here.

We go through 3 compounds from patent US11096986B2, “Use of a neurofilament peptide for targeting neural stem cells” (Universite D'Angers, priority 2014, dated 2021).

In data set [1] the test system is neural stem cells. The experiment in a line: Confocal microscopy of neurospheres (peptide uptake, α-tubulin microtubule network). Format: cell-based, rat. As for the experimental part:
To visualize the NFL-TBS40-63 peptide uptake in neural stem cells, neurospheres were plated on BD Cell-Tak (BD Biosciences) coverslips or LabTek chambers. After 24 h, neurospheres were incubated with 20 μmol/L FITC labelled NFL-TBS40-63 peptide for 30 min, 6 h or 72 h. Following PBS washing, cells were fixed with 4% paraformaldehyde for 15 min and washed three times in PBS. They were then incubated in a 0.5% triton X-100 permeabilization solution for 30 min and washed three times in PBS before incubation in a blocking solution (1% bovine serum albumin in 0.1% triton X-100) for 1 h. Neurospheres were then incubated overnight at 4° C. with mouse anti-α-tubulin antibody (Sigma) 1/1000. After three washes in PBS, tubulin was localized using an Alexa 568 nm anti-mouse antibody (Life Technologies) 1/200 for 2 h. Neurospheres were washed three times with PBS before adding 3 μmol/L 4′6-diaminido-2-phenylindole (DAPI, Sigma) for 5 min. Following PBS washing, coversplips were mounted with a ProLong Gold antifade solution (Life Technologies).

Data set [2] deals with neural stem cells. The experiment in a line: Cell viability by Annexin V/PI staining and FACS. Format: cell-based, rat. As for the experimental part: To analyse the cell viability in the presence of the NFL-TBS40-63 peptide, neurospheres were seeded in 35-mm dishes and then treated with increased concentrations of biotinylated peptide or with 1 μmol/L colchicine during 3 or 5 days at 37° C. Neurospheres were then collected in a microcentrifuge tube. After centrifugation (5 min at 700 rpm), cells were dissociated mechanically and stained with annexin-V FITC (Annexin-V FITC Kit, Miltenyi Biotec) for 15 min at room temperature. Finally, cells were counterstained with 1 μg/mL PI solution prior to analysis by flow cytometry.

In data set [3] the test system is neural stem cells. The experiment in a line: CyQUANT cell proliferation assay. In kind it is cell-based, rat. As for the experimental part:
To analyse the NFL-TBS.40-63 peptide effect on the NSC proliferation, primary neurospheres were dissociated and 5.10^3 cells per well were plated on BD Cell-Tak (BD Biosciences) on 96 well microplate. Cells were treated with increased concentrations of biotinylated NFL-TBS.40-63 peptide, or with 1 μmol/L colchicine during 72 h at 37° C. After washes with PBS, cells were freezed at −80° C. Finally, the DNA concentration was analyzed using the CyQUANT cell proliferation assay kit (Molecular Probes).

For data set [4], the system named is neural stem cells. The data set is described as follows: Cell cycle analysis by PI incorporation and FACS. In kind it is cell-based, rat. As for the experimental part: […] Neurospheres were then collected in a microcentrifuge tube. After centrifugation (5 min at 700 rpm), cells were dissociated mechanically and permeabilized with PBS-Tween 0.5% and fixed with ethanol 70% before adding 1 mg/mL RNase (Invitrogen) during 30 min at 37° C. The cell suspension was diluted in 10 μg/mL PI before DNA content analysis by flow cytometry.

For data set [5], the system named is neural stem cells of adult rats. The experiment in a line: FACS internalization of FITC labelled peptide in neurospheres of adult rats. Conditions: 40 μmol/L, 30 minutes. Format: cell-based, rat. The protocol: (§1) Primary cultures of neural stem cells are derived from the sub-ventricular zone of newborn (1-5 days) or adults (<4 months) brain Wistar rats. The dissociated cells were grown in MEM alpha (PAA) supplemented with 25 mmol/L D-glucose (Sigma), 1 mmol/L Na Pyruvate, 15 mmol/L HEPES, 5% penicillin/streptomycin (PAA) and 1% B27 (Gibco), and containing 20 ng/mL EGF (Promega). After 5-7 days, stem cells formed floating neurospheres.
To evaluate the internalization of the FITC labelled NFL-TBS40-63 peptide by the fluorescence-activated cell sorting technique (FACS, Becton Dickinson), neurospheres were seeded in 35-mm dishes and cultured for 30 min at 37° C. in media containing FITC labelled NFL-TBS40-63 peptide at increasing concentrations. To quench the extracellular signal of the FITC labelled NFL-TBS40-63 peptide, 0.4% trypan blue (Sigma) was added before FACS analysis. To investigate the uptake mechanism, neurospheres were preincubated at 4° C. during 30 min, or with 10 mmol/L sodium azide in the presence of 6 mmol/L 2-deoxy-D-glucose to deplete cellular ATP, or with different inhibitors during 30 min at 37° C. Then 20 μmol/L FITC labelled peptide was added to the cells for 30 min at 37 C.°. […] The fluorescent positive cells that incorporated the FITC labelled peptide were analyzed by flow cytometry (FACSCalibur, Becton Dickinson).

The subject of data set [6] is neural stem cells of newborn rats. The data set is described as follows: FACS internalization of FITC labelled peptide in neurospheres of newborn rats. Format: cell-based, rat. Conditions: for percentage of newborn NSCs that internalized the peptide: 30 min, FACS. As for the experimental part:
as §1
(§2) To evaluate the internalization of the FITC labelled NFL-TBS40-63 peptide by the fluorescence-activated cell sorting technique (FACS, Becton Dickinson), neurospheres were seeded in 35-mm dishes and cultured for 30 min at 37° C. in media containing FITC labelled NFL-TBS40-63 peptide at increasing concentrations. To quench the extracellular signal of the FITC labelled NFL-TBS40-63 peptide, 0.4% trypan blue (Sigma) was added before FACS analysis. To investigate the uptake mechanism, neurospheres were preincubated at 4° C. during 30 min, or with 10 mmol/L sodium azide in the presence of 6 mmol/L 2-deoxy-D-glucose to deplete cellular ATP, or with different inhibitors during 30 min at 37° C. Then 20 μmol/L FITC labelled peptide was added to the cells for 30 min at 37 C.°. Subsequently, after centrifugation (5 min at 700 rpm), cells were dissociated mechanically and washed twice with PBS, and then re-suspended in 50 μg/mL Propidium iodide (PI, Sigma). The fluorescent positive cells that incorporated the FITC labelled peptide were analyzed by flow cytometry (FACSCalibur, Becton Dickinson).

For data set [7], the system named is adult neural stem cells in the SVZ. The experiment in a line: Intra-ventricular injection of the peptide and immunohistochemistry of the SVZ. Format: in vivo, rat. The protocol:
Adult females Wistar rats were anesthetized by intraperitoneal injection of a mixture of ketamine 10% (80 mg/kg) and xylazine 2% (10 mg/kg). Animals were then placed on a stereotaxic apparatus (David Kopf instruments, Tujunga, Calif.), and a sagital incision was made through the skin to expose the cranium in which a small hole was made using a dental drill, at the appropriate coordinates (−0.8 mm anterior and 1.6 mm lateral to the bregma). A volume of […] of the FITC-peptide 1 mmol/L was injected, using a 10-μL Hamilton syringe (Hamilton glass syringe 70 RN) with a 32-G needle (Hamilton, VWR), at a depth of 4.3 mm from the outer border of the cranium into the right lateral ventricle, and connected through a cannula to a 100-μL Hamilton 22-G syringe (Hamilton glass syringe 810 RN) containing the peptide. A slow-infusion was performed by convection-enhanced delivery (CED) with an osmotic pump (Harvard Apparatus) at a flow rate of 0.5 μL/min. After injection and withdrawal of the needle (0.5 mm/min), the head skin was sutured. Animals were sacrificed 1 hour, 6 hours, or 24 hours after the injection, and brains were removed and frozen, before sectioning them using a Leica cryostat. […]

A further data set deals with neurones and astrocytes. The conditions noted are these: neurones and astrocytes (Bocquet et al., 2009; Bergès et al., 2012); cited from earlier work.
Another data set has as its system glioblastoma cells. Conditions: glioblastoma cells (Bocquet et al., 2009; Bergès et al., 2012); cited from earlier work.
The subject of data set [8] is PSA-NCAM expression on neural stem cells. The data set is described as follows: PSA-NCAM expression by flow cytometry. In kind it is cell-based, rat. The conditions noted are these: high peptide concentrations, 7 days. The protocol: To quantify the PSA-NCAM expression on neural stem cells, neurospheres were seeded in 35-mm dishes and cultured for 7 days at 37° C. in media containing biotinylated NFL-TBS.40-63 peptide at increasing concentrations, or containing 1% new-born calf serum (NBCS). After dissociation, cells were incubated with the anti-PSA-NCAM antibody conjugated to R-phycoerythrin (PE) for 10 minutes at 4° C. (Miltenyi), washed and then re-suspended in 50 μg/mL PI. The fluorescent positive cells that expressed PSA-NCAM were analyzed by flow cytometry.
On the technique in general: In flow cytometry, cells or beads pass a laser one at a time.

The test system of data set [9] is neural stem cells. The data set is described as follows: Self-renewal assay (secondary neurospheres). Conditions: primary neurospheres cultured with peptide, dissociated, 5 days in culture medium only. In kind it is cell-based, rat. The protocol: (§3) To investigate neurosphere forming properties, 5.10^3 SVZ cells were seeded per well in a 24 wells plate in media containing 20 ng/mL EGF. Cells were incubated in the absence or presence of increasing concentrations of biotinylated peptide, or with 1 μg/mL colchicine. After 5-7 days, the total number of primary neurospheres and the percent of adherent primary neurospheres were determined in each condition by microscopy analysis, and pictures were taken with an inverted microscope and the Metamorph software. Then for self-renewal assay, primary neurospheres were collected in each condition, dissociated as single cells, and seeded in media containing 20 ng/mL EGF. After 5 days, the total number of secondary neurospheres was counted in each condition by microscopy analysis.

Data set [10] concerns neural stem cells of newborn rats. The experiment in a line: Uptake mechanism by FACS (4° C., ATP depletion, endocytosis inhibitors). Format: cell-based, rat. As for the experimental part: as §2
Data set [11] deals with neural stem cells. The experiment in a line: Neurosphere forming analysis (primary neurospheres, adherence). Format: cell-based, rat. As for the experimental part:
as §3

The mark [12] stands for this setting: summary of proliferation and adhesion results.

For `COc1cc2c(c(OC)c1OC)-c1ccc(OC)c(=O)cc1[C@@H](NC(C)=O)CC2` [colchicine, reference compound], the “microtubule network of NSC” value in the data set with neural stem cells [1] (colchicine) is recorded as “profoundly affected”. Besides, the “number of viable NSC” value in the data set on neural stem cells [2] (colchicine, three days, Annexin V-FITC and PI) is “strongly reduced”. The “neural stem cell proliferation (DNA concentration)” value in the data set with neural stem cells [3] (colchicine, anti-proliferative agent control) is “significant decrease”. Also, the “cellular cycle of NSC” value in the data set on neural stem cells [4] (1 μg/mL colchicine, positive control) is given as “affected”.
As for “FITC-peptide: NFL-TBS40-63 peptide coupled to carboxy-fluorescein isothiocyanate (FITC) (YSSYSAPVSSSLSVRRSYSSSSGS; also: coupled to FITC, site not given here; UniProt P07196 40-63, looked up, fragment)”, in the data set with neural stem cells [1] (NSCs in the neurospheres and progenitor cells in the periphery, 20 μmol/L FITC labelled peptide), the “internalization of the peptide by confocal microscopy” value is reported as “confirmed the internalization”. Also, in data set [5], the “maximum threshold of peptide uptake in adult NSC (percentage of fluorescent cells)” value was 92.74±2.51%. Also, the “percentage of newborn NSCs that internalized the peptide” value came to 38.72±9.08% in data set [6] (5 μmol/L FITC-peptide) and 91.07±5.13% in data set [6] (40 μmol/L FITC-peptide). In addition, in data set [6] (0.4% trypan blue added before FACS reading), the “peptide uptake after quenching of surface-bound fluorescence” value is listed as “dose-dependent uptake of the peptide similar to that without quenching”. The “localisation of the peptide in brain sections” value in data set [7] (1 mmol/L FITC peptide in right lateral ventricle of adult rats, 1 hour after injection) was “localised in the right lateral ventricle, in the ependymal cells and a part was observed in the SVZ”. The cytotoxicity in vivo result in [7] (after injection in right lateral ventricle, confocal analyses) is “without causing detectable cytotoxicity”.
With “YSSYSAPVSSSLSVRRSYSSSSGS (TBS motif of the human light chain neurofilament protein, amino acids) [NFL-TBS40-63 peptide]”, the “microtubule network of NSC” value with neural stem cells [1] (6 hours of incubation with the peptide (20 μmol/L FITC labelled)) is given as “not affected”. For the same compound, the “microtubule and cellular cycle disruption in normal cells” value with neurones and astrocytes is listed as “not observed”. Besides, the NSC cell viability result in the data set on neural stem cells [2] is recorded as “not modified”. The “concentration at which the peptide disrupts microtubule formation and the cellular cycle” value in the data set on glioblastoma cells is given as “higher than 10 μm”. For the same compound, the “PSA-NCAM expression on the neural stem cells” value in data set [8] was “weak decrease”. The “neural stem cell proliferation (DNA concentration)” value in the data set with neural stem cells [3] (increased peptide concentrations, one week (72 h in method)) is given as “significant decrease”. In the data set with neural stem cells [9], the “numbers of secondary neurospheres compared to control (self-renewal)” value is recorded as “significantly lower numbers of secondary neurospheres”. For the same compound, the “peptide uptake under ATP-depletion” value in data set [10] (ATP-depleted buffer 30 minutes before peptide, 20 μmol/L FITC labelled peptide) was “not affected”. For the same compound, the “peptide uptake at 4° C.” value in data set [10] (cells at 4° C. 30 minutes before peptide, 20 μmol/L FITC labelled peptide) is listed as “not affected”. Also, the “peptide uptake in the presence of inhibitors of endocytic and signalling pathways” value in data set [10] (chlorpromazine, PMA, DAM, wortmaninn, U0126, genistein, sunitinib, gefitinib pre-treatment 30 min, 20 μmol/L peptide) was “not affected”. The “cellular cycle of NSC” value with neural stem cells [4] (increased peptide concentrations, 48 h) was “remained unchanged”. Further, in the data set with neural stem cells [4] (with or without peptide, 48 h), the “cells in G1-phase” value was 60-65%, the “cells in G2/M-phases” value is recorded as approximately 7% and the “cells in S-phase” value is approximately 10%. Also, the “adherence of primary neurospheres” value with neural stem cells [11] (40 μmol/L peptide) was “most of primary neurospheres were adherent”. The “number of primary neurospheres compared to untreated control” value with neural stem cells [11] (increased peptide concentrations, 5 days, except for 100 μmol/L) was “did not change”. Further, the “adherence of primary neurospheres” value in the data set on neural stem cells [11] (peptide concentrations higher than 40 μmol/L) is on record as “no floating neurospheres were observed”. In the data set with neural stem cells [11] (setting [12]), the “high concentrations that affect both proliferation and adhesion of neural stem cells” value was not below 40 µmol/L; the “low concentrations that disrupt cell proliferation without effect on cell attachment” value was “up to 20 μmol/L”.
